# Test results: US20090202494A1, “Combined use of glp-1 agonists and gastrin for regulating blood glucose levels” (priority 2004, published 2009)
# Experiments:
# Format in all cases: in vivo, mouse
# [1] = system: acutely-diabetic NOD mice; assay: Example 1: fasting blood glucose in acutely-diabetic NOD mice treated with GLP-1 or GLP-1 + Gastrin
# Experimental: Female NOD mice ages 12-16 weeks were treated for 18 days only with vehicle (PBS), GLP-1 (300 μg/kg/day), or GLP-1 (300 μg/kg/day)+Gastrin (3 μg/kg/day), by injection intraperitoneally twice daily within 2 days after diabetes onset. Onset of diabetes was determined by fasting blood glucose (FBG) levels (9-15 mM compared with normal FBG <6.0 mM). The mice were monitored daily for urine glucose and weekly for FBG levels.
# At the start of the treatments, fasting blood glucose levels ranged between 11-14 mM. After 18 days of treatments, FBG was 24±1 mM in vehicle-treated mice, 13±2 mM in mice treated with GLP-1 alone, and 6±1 mM in mice treated with the combination of GLP-1 and Gastrin (mean±SE, n=4 mice in treated groups; n=6 mice in the control group).
# After 18 days of treatment therapy was stopped and FBG was monitored weekly for additional six weeks. […] Comparatively, the untreated group of animals had to be sacrificed due to the severity of the disease after five weeks.
# [2] = system: acutely-diabetic NOD mice; assay: Example 2: pancreatic insulin levels in NOD mice
# Experimental: (§1) The mice were monitored daily for urine glucose levels and weekly for FBG levels during the treatment and for an additional 6 weeks after the treatment was stopped. The pancreatic insulin levels were determined in each group as well as histological analysis of the pancreatic tissue was performed. Pancreatic tissues were fixed and stained for insulin producing cells. The beta cell mass was determined by morphometric analysis.
# [3] = system: acutely-diabetic NOD mice; assay: Example 2: fasting blood glucose in acutely-diabetic NOD mice, during treatment and 6 weeks after
# Experimental: as §1
substance,measurement,setting,value
"GLP-1(7-36) Amide, Human",FBG course during six weeks after treatment was stopped,[1]; FBG monitored weekly for six weeks post treatment,transient improvement in FBG levels up to 2 weeks after the treatment was stopped
same,fasting blood glucose (FBG) after 18 days of treatments,"[1]; female NOD mice, i.p. twice daily for 18 days, GLP-1 300 μg/kg/day, Gastrin 3 μg/kg/day, mean±SE, n=4, normal FBG <6.0 mM",13 ± 2 mM
same,effect on pancreatic insulin levels (in words),[2],modest effect only
same,fasting blood glucose after 18 days of daily treatments,"[3]; NOD mice, i.p. twice daily, combination printed as 30 μg/kg/day of GLP-1 and 3 μg/kg/day of G1",12.5 ± 2.2 mM
same,maximal blood glucose levels reached post treatment,"[3]; after treatments stopped, animals suffering from diabetic complications",over 30 mM
